Several values for one entry are separate records, joined by “and”; a condition that tells them apart may be missing. Equal entries are not always repeated. Where only a bound is given, the exact number is not on record here.

The Ki is the equilibrium dissociation constant of an inhibitor or competing ligand from its target.

For this assay, the target named is 5-hydroxytryptamine receptor 4 (Homo sapiens, UniProt Q13639).
Chain of 5-hydroxytryptamine receptor 4 (Q13639 whole entry): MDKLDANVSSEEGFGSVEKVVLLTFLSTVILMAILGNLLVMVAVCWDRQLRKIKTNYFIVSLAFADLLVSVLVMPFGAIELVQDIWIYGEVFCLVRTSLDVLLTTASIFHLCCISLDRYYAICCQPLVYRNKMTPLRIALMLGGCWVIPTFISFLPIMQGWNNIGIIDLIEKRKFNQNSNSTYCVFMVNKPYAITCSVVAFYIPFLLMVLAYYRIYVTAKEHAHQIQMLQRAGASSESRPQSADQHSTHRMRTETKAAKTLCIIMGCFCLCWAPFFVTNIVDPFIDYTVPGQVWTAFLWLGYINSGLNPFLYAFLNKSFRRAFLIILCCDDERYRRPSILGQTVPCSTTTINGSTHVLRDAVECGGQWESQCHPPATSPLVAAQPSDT
On to `CCn1c(=O)n(C(=O)NC2CC3CCC(C2)N3C)c2ccccc21` (stereo not drawn) [BIMU 1], for which the inhibition constant Ki was 373 nM and 123 nM and 66 nM and 38.8 nM. Turning to `Cn1cc(C(=O)OCC2CCN(CCNS(C)(=O)=O)CC2)c2ccccc21` [GR 113808], the inhibition constant Ki turned out to be 0.07 nM. `COc1cc(N)c(Cl)cc1C(=O)NC1CN2CCC1CC2` (stereo not drawn) [ZACOPRIDE,R]: the Ki was > 10000 nM.
